Results reported in ChEMBL document CHEMBL1130815, “Anti-Helicobacter pylori agents. 2. Structure activity relationships in a new series of 2-alkylguanidino-4-furylthiazoles” (1998).
In brackets after ≈: the same amount, converted by molar mass.

How the values were obtained:
Neisseria gonorrhoeae = assay: Compound was evaluated for antimicrobial activity against Neisseria gonorrhoeae; type: functional
Clostridium perfringens = assay: Compound was evaluated for antimicrobial activity against Clostridium perfringens; type: functional
Clostridioides difficile = assay: Compound was evaluated for antimicrobial activity against Clostridium difficile; type: functional
Helicobacter pylori = assay: Compound was evaluated for antimicrobial activity against Helicobacter pylori; type: functional
Neisseria meningitidis = assay: Compound was evaluated for antimicrobial activity against Neisseria meningitidis; type: functional
Campylobacter jejuni = assay: Compound was evaluated for antimicrobial activity against Campylobacter jejuni; type: functional
Bacteroides fragilis = assay: Compound was evaluated for antimicrobial activity against Bacteroides fragilis; type: functional
Canis familiaris = assay: Compound was evaluated for the inhibition of gastrin-stimulated gastric acid secretion in conscious heidenhain pouch dogs when administered 1 mg/kg perorally; type: functional; settings: Canis lupus familiaris, Stomach, route oral
Cavia porcellus = species on record: Cavia porcellus; assay: Inhibition of histamine-stimulated chronotropic response in the isolated guinea pig right atrium at 1*10e-6 g/mL; type: functional, Cardiac atrium
Rattus norvegicus = assay: Inhibition of histamine-stimulated gastric acid secretion in lumen-perfused stomach of the anaesthetized rats when administered 1 mg/kg intravenously; type: functional; settings: route intravenous

Cc1ncc([N+](=O)[O-])n1CCO [METRONIDAZOLE]
MIC (Neisseria gonorrhoeae): > 100 µg/mL | MIC (Clostridium perfringens): 1.75 µg/mL (≈ 10.2 µM) | MIC (Clostridioides difficile): 0.2 µg/mL (≈ 1.17 µM) | MIC (Helicobacter pylori): 5.4 µg/mL (≈ 31.6 µM) | MIC (Neisseria meningitidis): > 100 µg/mL | MIC (Campylobacter jejuni): 30 µg/mL (≈ 175 µM) | MIC (Bacteroides fragilis): 0.59 µg/mL (≈ 3.45 µM)

CC(=O)NCc1ccc(-c2csc(NC(=N)NCC3CC3)n2)o1
MIC (Helicobacter pylori): 1.46 µg/mL (≈ 4.38 µM)

CC(=O)NCc1ccc(-c2csc(NC(=N)NCCN3CCCCC3)n2)o1
MIC (Helicobacter pylori): 27 µg/mL (≈ 69.1 µM)

COCC/N=C(\N)Nc1nc(-c2ccc(CNC(C)=O)o2)cs1
MIC (Helicobacter pylori): 1.45 µg/mL (≈ 4.3 µM)

C#CCNC(=N)Nc1nc(-c2ccc(CNC(C)=O)o2)cs1
MIC (Helicobacter pylori): 8.2 µg/mL (≈ 25.8 µM)

CN/C(=N\CCSCc1nc[nH]c1C)NC#N [CIMETIDINE]
inhibition in vivo at 1 mg/kg (Canis familiaris): 53% | Inhibition (Cavia porcellus): 43% | inhibition in vivo at 1 mg/kg (Rattus norvegicus): 22%

CC1(C)S[C@@H]2[C@H](NC(=O)[C@H](N)c3ccc(O)cc3)C(=O)N2[C@H]1C(=O)O [AMOXICILLIN]
MIC (Neisseria gonorrhoeae): 7.7 µg/mL (≈ 21.1 µM) | MIC (Clostridium perfringens): 0.027 µg/mL (≈ 0.0739 µM) | MIC (Clostridioides difficile): 0.28 µg/mL (≈ 0.766 µM) | MIC (Helicobacter pylori): 0.021 µg/mL (≈ 0.0575 µM) | MIC (Neisseria meningitidis): 0.056 µg/mL (≈ 0.153 µM) | MIC (Campylobacter jejuni): 2.2 µg/mL (≈ 6.02 µM) | MIC (Bacteroides fragilis): 2.1 µg/mL (≈ 5.75 µM)

C=CCNC(=N)Nc1nc(-c2ccc(CNC(C)=O)o2)cs1
MIC (Helicobacter pylori): 1.45 µg/mL (≈ 4.54 µM)

CC(=O)NCc1ccc(-c2csc(NC(=N)NCCO)n2)o1
MIC (Helicobacter pylori): 34 µg/mL (≈ 105 µM)

CSCC/N=C(\N)Nc1nc(-c2ccc(CNC(C)=O)o2)cs1
MIC (Helicobacter pylori): 1.67 µg/mL (≈ 4.72 µM)

CCOCC/N=C(\NCCOCC)Nc1nc(-c2ccc(CNC(C)=O)o2)cs1
MIC (Helicobacter pylori): 81 µg/mL (≈ 191 µM)

CCOCCCC/N=C(\N)Nc1nc(-c2ccc(CNC(C)=O)o2)cs1
MIC (Helicobacter pylori): 1.1 µg/mL (≈ 2.9 µM)

CCCCOCC/N=C(\N)Nc1nc(-c2ccc(CNC(C)=O)o2)cs1
MIC (Helicobacter pylori): 1.43 µg/mL (≈ 3.77 µM)

CC(=O)NCc1ccc(-c2csc(NC(=N)NC3CCCCC3)n2)o1
MIC (Helicobacter pylori): 1.06 µg/mL (≈ 2.93 µM)

BISMUTH SUBSALICYLATE
MIC (Neisseria gonorrhoeae): 4.7 µg/mL | MIC (Clostridium perfringens): > 100 µg/mL | MIC (Clostridioides difficile): 50 µg/mL | MIC (Helicobacter pylori): 8.7 µg/mL | MIC (Neisseria meningitidis): 12.5 µg/mL | MIC (Campylobacter jejuni): 7.4 µg/mL | MIC (Bacteroides fragilis): 50 µg/mL
